According to article PMC8356643 (2019):

Experiments:
[1] = test system: THM (DNA, G4) GGGTTGGGTTGGGTTGGG; assay: ITC; settings: 5 mM K+, 95 mM Li+; 10 mM lithium cacodylate 7.2, 95 mM LiCl, 5 mM KCl
[2] = test system: THM (DNA, G4) GGGTTGGGTTGGGTTGGG; assay: CD melting; settings: 5 mM K+; 2 eq NMM
[3] = test system: THM (DNA, G4) GGGTTGGGTTGGGTTGGG; assay: UV-vis titration; settings: 5 mM K+, 95 mM Li+; 10 mM lithium cacodylate 7.2, 95 mM LiCl, 5 mM KCl
[4] = test system: cMyc (DNA, G4) TGAGGGTGGGTAGGGTGGGTAA; assay: UV-vis titration; settings: 100 mM K+; 6 mM Na2HPO4, 2 mM NaH2PO4 7.1, 1 mM Na2EDTA, 100 mM KCl
[5] = test system: VEGF (DNA, G4) GGGAGGGTTGGGGTGGG; assay: UV-vis titration; settings: 5 mM K+, 95 mM Li+; 10 mM lithium cacodylate 7.2, 95 mM LiCl, 5 mM KCl; parallel dimer
[6] = test system: G4TERT (DNA, G4) AGGGGAGGGGCTGGGAGGGC; assay: UV-vis titration; settings: 5 mM K+, 95 mM Li+; 10 mM lithium cacodylate 7.2, 95 mM LiCl, 5 mM KCl; parallel dimer
[7] = test system: THM (DNA, G4) GGGTTGGGTTGGGTTGGG; assay: X-ray crystallography; settings: K+; 2.4 Å; end-stacking to the 3' G-tetrad
[8] = test system: THM (DNA, G4) GGGTTGGGTTGGGTTGGG; assay: fluorescence titration; settings: 5 mM K+, 95 mM Li+; 10 mM lithium cacodylate 7.2, 95 mM LiCl, 5 mM KCl
[9] = test system: cMyc (DNA, G4) TGAGGGTGGGTAGGGTGGGTAA; assay: fluorescence titration; settings: 100 mM K+; 6 mM Na2HPO4, 2 mM NaH2PO4 7.1, 1 mM Na2EDTA, 100 mM KCl

- Ka [1]: 70 ± 20 × 10^6 M^-1
- ΔT [2]: 23 ± 2 °C
- Ka [3]: 30 ± 20 × 10^6 M^-1
- Ka [4]: 19 ± 6 × 10^6 M^-1
- Ka [5]: 10. ± 2 × 10^6 M^-1
- Ka [6]: 1.7 ± 0.7 × 10^6 M^-1
- binding [7]: yes
- Ka [8]: 50 ± 20 × 10^6 M^-1
- Ka [9]: 7.4 ± 2 × 10^6 M^-1
SMILES: CCc1c(C)c2cc3nc(cc4nc(cc5c(CC)c(C)c(cc1[nH]2)n5C)C(C)=C4CCC(=O)O)C(CCC(=O)O)=C3C
